Measurements published in paper PMC6591272, “Midostaurin Reverses ABCB1-Mediated Multidrug Resistance, an in vitro Study” (Frontiers in Oncology, 2019).

How the values were obtained:
[1] = target: T1, ABCB1 transporter (P-gp/MDR1) (Homo sapiens, UniProt P08183); test: vanadate-sensitive ATPase assay in ABCB1-overexpressing membranes; supported by [3H]-paclitaxel efflux inhibition in KB-C2 cells; assay type: biochemical; set-up: cell membranes that overexpressed ABCB1
[2] = target: T1, ABCB1 transporter (P-gp/MDR1)

T1 sequence (P08183 whole entry): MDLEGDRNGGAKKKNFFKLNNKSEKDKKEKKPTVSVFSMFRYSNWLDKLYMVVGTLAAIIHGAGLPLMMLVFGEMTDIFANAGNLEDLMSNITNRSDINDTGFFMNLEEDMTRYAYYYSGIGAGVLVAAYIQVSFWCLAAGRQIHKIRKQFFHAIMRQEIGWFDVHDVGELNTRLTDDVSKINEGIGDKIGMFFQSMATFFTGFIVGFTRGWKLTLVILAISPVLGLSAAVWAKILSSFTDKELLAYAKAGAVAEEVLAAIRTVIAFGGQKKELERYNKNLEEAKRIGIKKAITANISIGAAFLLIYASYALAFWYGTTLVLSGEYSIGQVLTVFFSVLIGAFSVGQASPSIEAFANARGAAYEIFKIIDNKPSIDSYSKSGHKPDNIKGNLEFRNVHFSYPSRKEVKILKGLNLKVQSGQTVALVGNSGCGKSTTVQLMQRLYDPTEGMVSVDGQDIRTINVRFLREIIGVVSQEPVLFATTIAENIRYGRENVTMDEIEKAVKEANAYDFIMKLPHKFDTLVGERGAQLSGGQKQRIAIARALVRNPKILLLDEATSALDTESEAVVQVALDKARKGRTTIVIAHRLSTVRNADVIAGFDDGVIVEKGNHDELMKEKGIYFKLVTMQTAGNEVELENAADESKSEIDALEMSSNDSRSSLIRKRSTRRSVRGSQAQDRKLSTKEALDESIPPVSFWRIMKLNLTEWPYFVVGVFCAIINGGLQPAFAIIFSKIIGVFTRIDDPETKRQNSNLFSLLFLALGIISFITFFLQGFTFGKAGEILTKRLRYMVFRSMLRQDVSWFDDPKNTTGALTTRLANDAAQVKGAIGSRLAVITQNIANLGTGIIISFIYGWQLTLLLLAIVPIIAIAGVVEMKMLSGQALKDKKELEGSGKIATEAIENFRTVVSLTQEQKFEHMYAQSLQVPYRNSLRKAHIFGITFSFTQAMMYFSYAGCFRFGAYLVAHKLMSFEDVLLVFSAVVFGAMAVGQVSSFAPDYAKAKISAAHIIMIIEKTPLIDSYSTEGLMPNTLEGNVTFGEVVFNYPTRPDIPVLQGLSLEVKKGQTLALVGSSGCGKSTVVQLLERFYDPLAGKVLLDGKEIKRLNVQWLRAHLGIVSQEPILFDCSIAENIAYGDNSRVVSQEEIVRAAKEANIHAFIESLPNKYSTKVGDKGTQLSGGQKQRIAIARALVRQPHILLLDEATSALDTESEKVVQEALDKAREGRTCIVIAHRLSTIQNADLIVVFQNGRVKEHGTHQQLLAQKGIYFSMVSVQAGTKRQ

Structure (SMILES) | IC50 [1] [µM] | [3H]-paclitaxel accumulation and efflux in KB-C2 versus parental KB-3-1 cells [2]
CO[C@@H]1[C@H](N(C)C(=O)c2ccccc2)C[C@H]2O[C@]1(C)n1c3ccccc3c3c4c(c5c6ccccc6n2c5c31)C(=O)NC4 [midostaurin] | 3.1 | 
CC(=O)O[C@H]1C(=O)[C@@]2(C)[C@H]([C@H](OC(=O)c3ccccc3)[C@]3(O)C[C@H](OC(=O)[C@H](O)[C@@H](NC(=O)c4ccccc4)c4ccccc4)C(C)=C1C3(C)C)[C@]1(OC(C)=O)CO[C@@H]1C[C@@H]2O [paclitaxel] |  | midostaurin significantly decreased the efflux level of [^3H]-paclitaxel in ABCB1-overexpressing KB-C2 cells in a dose-dependent manner
